This is an account of results in PubChem BioAssay AID256 (DTP/NCI, 2004).

Inconclusive results and toxic doses are left out.

For this experiment, the system named is CD2F1 mice, L1210 leukemia ip, survival T/C. Put plainly: NCI In Vivo Anticancer Drug Screen. Data for tumor model L1210 Leukemia (intraperitoneal) in CD2F1 (CDF1) mice. The settings on record: endpoint: mean survival time, higher = longer survival. A digest of the protocol: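 Ratio T/C, where T is the treated-group value and C the vehicle-dosed control value, from mice implanted with a transplantable tumor.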

As for `COc1ccc(CCNC(=O)CCN2C(=O)CCC2=O)cc1OC`, the T/C (dose: 100.0 mg/kg/injection, schedule: Q01DX009 (ip), vehicle: saline with Tween-80) is 98 % of control; the T/C (dose: 100.0 mg/kg/injection, schedule: Q04DX003 (ip), vehicle: saline sonified) is 101 % of control; the T/C (dose: 200.0 mg/kg/injection, schedule: Q01DX009 (ip), vehicle: saline with Tween-80) is 96 % of control; the T/C (dose: 200.0 mg/kg/injection, schedule: Q04DX003 (ip), vehicle: saline sonified) is 101 % of control; the T/C (dose: 400.0 mg/kg/injection, schedule: Q01DX009 (ip), vehicle: saline with Tween-80) was 100 % of control; the T/C (dose: 400.0 mg/kg/injection, schedule: Q04DX003 (ip), vehicle: saline sonified) was 98 % of control.
Take `O=[N+]([O-])c1ccc(Sc2ncnc3nc[nH]c23)c([N+](=O)[O-])c1`: the T/C was 154 % of control (dose: 16.6 mg/kg/injection, schedule: Q01DX005 (ip), vehicle: other); 167 % of control (dose: 25.0 mg/kg/injection, schedule: Q01DX005 (ip), vehicle: other); 162 % of control (dose: 37.5 mg/kg/injection, schedule: Q01DX005 (ip), vehicle: other); 167 % of control (dose: 56.3 mg/kg/injection, schedule: Q01DX005 (ip), vehicle: other).
As for `CCCCCCCCCCC(C)c1ccc(S(=O)(=O)O)cc1` (stereo not drawn), the T/C is 97 % of control (dose: 50.0 mg/kg/injection, schedule: Q01DX009 (ip), vehicle: saline sonified); 97 % of control (dose: 100.0 mg/kg/injection, schedule: Q01DX009 (ip), vehicle: saline sonified); 102 % of control (dose: 200.0 mg/kg/injection, schedule: Q01DX009 (ip), vehicle: saline sonified).
